One series relates to K562. Briefly: Cytotoxicity against human K562 cells assessed as inhibition of cell growth by MTT assay. It counts as functional, cell-based. A general note: Formazan colour is commonly taken as a measure of viable cells.
The next series has as its system H69AR. Briefly: Cytotoxicity against human NCI-H69AR cells assessed as inhibition of cell growth by SRB assay. Format: functional, cell-based.
For another series, the system named is ASPC1. Briefly: Cytotoxicity against human ASPC1 cells assessed as inhibition of cell growth by SRB assay. Format: functional, cell-based.
The subject of the next series is MDA-MB-231. Briefly: Cytotoxicity against human MDA-MB-231 cells assessed as inhibition of cell growth by SRB assay. It counts as functional, cell-based.
Series [1] can be described thus: Cytotoxicity against human L02 cells assessed as inhibition of cell growth by SRB assay. It counts as toxicity, cell-based. In general terms: The SRB assay estimates cell density from bound dye.

The structures appear in SMILES notation.

Turning to `COC1=CC(=O)[C@H](C[C@@]2(C)CC[C@]3(C)C(C)=CCC[C@H]3[C@H]2C)[C@H]1O`, the IC50 (in the series on K562; in the series on H69AR; in the series with ASPC1; in the series on MDA-MB-231; in series [1]) was above 30 µM each time.
Consider `COC1=CC(=O)C(O)=C(C[C@@]2(C)CC[C@]3(C)C(C=O)=CCC[C@H]3[C@H]2C)C1=O`, for which the IC50 (usually the concentration needed to halve the response being measured) in the series with K562 is above 30 µM; with H69AR, 2.85 µM; with ASPC1 it was above 30 µM; in the series on MDA-MB-231, above 30 µM; in series [1] it was 12.1 µM.
On to `COC1=CC(=O)C2=C(C[C@@H]3[C@@]4(C)CCCC(C)(C)[C@@H]4CC[C@@]23C)C1=O`, for which the IC50 (in the series with K562; in the series with H69AR; in the series with ASPC1; in the series on MDA-MB-231; in series [1]) was above 30 µM throughout.
On to `COC1=CC(=O)C(O)=C(C[C@@]2(C)CC[C@]3(C)[C@@H](C)C(=O)CC[C@H]3[C@H]2C)C1=O`, for which the IC50 was 16.1 µM in the series on K562; above 30 µM in the series with H69AR; above 30 µM in the series on ASPC1; above 30 µM in the series with MDA-MB-231; 7.6 µM in series [1].
`C=C1CCC[C@H]2[C@@H]1CC[C@@H](C)[C@@]2(C)CC1=CC(=O)C=C(OC)C1=O`: the IC50 (in the series on K562; with H69AR; in the series on ASPC1; in the series with MDA-MB-231; in series [1]) was above 30 µM each time.
As to `COc1cc(O)cc2c1O[C@]1(C)CC[C@H]3C(C)(C)CCC[C@]3(C)[C@H]1C2`, the IC50 in the series with K562 was 14 µM; with H69AR, above 30 µM; in the series on ASPC1, above 30 µM; in the series with MDA-MB-231, above 30 µM; in series [1] it was above 30 µM.
For the compound `COC(=O)/C=C1/OC(=O)C(C[C@@]2(C)CC[C@]3(C)C(C)=CCC[C@H]3[C@H]2C)=C1O`, the IC50 (in the series on K562; in the series with H69AR; in the series on ASPC1; with MDA-MB-231; in series [1]) was above 30 µM each time.
In the case of `COC1=CC(=O)[C@@H](C[C@@]2(C)CC[C@]3(C)C(C)=CCC[C@H]3[C@H]2C)[C@H]1O`, the IC50 (with K562; with H69AR; in the series on ASPC1; in the series with MDA-MB-231; in series [1]) was above 30 µM in each case.
Turning to `CCCCOC1=CC(=O)C(O)=C(C[C@@]2(C)CC[C@]3(C)C(C)=CCC[C@H]3[C@H]2C)C1=O`, the IC50 in the series with K562 is 3.01 µM; in the series with H69AR, 7.74 µM; in the series with ASPC1, above 30 µM; in the series on MDA-MB-231 it was 9.82 µM; in series [1], 20.3 µM.
As for `COC1=CC(=O)C=C(C[C@]2(C)[C@H](C)CC[C@@H]3C(C)=CCC[C@@H]32)C1=O`, the IC50 (in the series with K562; in the series on H69AR; in the series on ASPC1; in the series on MDA-MB-231; in series [1]) was above 30 µM each time.
With `COc1cccc2c1C(=O)c1c(O)c3c(c(O)c1C2=O)C[C@@](O)(C(=O)CO)C[C@@H]3O[C@H]1C[C@H](N)[C@H](O)[C@H](C)O1` [DOXORUBICIN], the IC50 in the series with K562, with H69AR, with ASPC1 and in the series with MDA-MB-231 was below 1 µM throughout.

Source of the values: ChEMBL document CHEMBL5390294, “Pseudoceranoids A-J, Sesquiterpene-Based Meroterpenoids with Cytotoxicity from the Sponge Pseudoceratina purpurea” (J Nat Prod, 2023).
